Test system: dogs suffering from GI-specific inflammation
Assay: Example 3: GI-specific inflammation, owner-rated symptom reduction (canine)
Assay type: in vivo
Conditions: symptom reduction score 0 (no reduction) to 4 (resolution of symptoms); for Final Score: after 28 days BID
Description: This example examines the ability of embodiments of the invention versus Pepcid® to treat unwanted GI-specific inflammation characterized by gastritis, reflux, vomiting, diarrhea, and inappetence.
The first patient group is twenty dogs suffering from GI-specific inflammation. The second patient group is twenty cats suffering from GI-specific inflammation. Each patient group is broken into five groups of four animals. The first groups receive Pepcid® as the sole active agent; the second groups receive a composition comprising HMW HA as the sole active agent; the third groups receive a composition comprising CBD as the sole active agent; the fourth groups receive a composition comprising HMW HA and CBD as the active agents; and the fifth groups receive a composition comprising HMW HA, CBD, and glutathione as the active agents.
Each composition is administered for a period of twenty-eight (28) days, BID. The owner observes potential reduction of symptoms at the end of treatment and rates the reduction as no reduction (score of 0), mild reduction (score of 1), moderate reduction (score of 2), significant reduction (score of 3), or resolution of symptoms (score of 4).
The following canine scores are observed and the results depicted in FIG. 3a: […]

| Compound | Final Score | Initial Score |
| --- | --- | --- |
| C=C(C)[C@@H]1CCC(C)=C[C@H]1c1c(O)cc(CCCCC)cc1O [CBD Alone, 2-[(1R,6R)-3-methyl-6-prop-1-en-2-ylcyclohex-2-en-1-yl]-5-pentylbenzene-1,3-diol] | 2 | 0 |
| hyaluronic acid [HMW HA Alone] | 3 | 0 |
